Results: ChEMBL document CHEMBL2073801, “Chlorpyrifos oxon interacts with the mammalian multidrug resistance protein, P-glycoprotein” (J Toxicol Environ Health, 1996)
“Also recorded” adds a separate entry of the source.

Experiments:
[1] = target: Multidrug resistance protein 1a (Rattus norvegicus) (UniProt Q6PSM0); experiment: TP_TRANSPORTER: Immunohistochemisty in vivo, jejunum of Fischer 344 rat; format: functional, organism-based
[2] = target: ATP-dependent translocase ABCB1 (Homo sapiens, UniProt P08183); experiment: TP_TRANSPORTER: ATP hydrolysis in MDR1-expressing Sf9 cells; format: functional
ATP-dependent translocase ABCB1, sequence (P08183 whole entry): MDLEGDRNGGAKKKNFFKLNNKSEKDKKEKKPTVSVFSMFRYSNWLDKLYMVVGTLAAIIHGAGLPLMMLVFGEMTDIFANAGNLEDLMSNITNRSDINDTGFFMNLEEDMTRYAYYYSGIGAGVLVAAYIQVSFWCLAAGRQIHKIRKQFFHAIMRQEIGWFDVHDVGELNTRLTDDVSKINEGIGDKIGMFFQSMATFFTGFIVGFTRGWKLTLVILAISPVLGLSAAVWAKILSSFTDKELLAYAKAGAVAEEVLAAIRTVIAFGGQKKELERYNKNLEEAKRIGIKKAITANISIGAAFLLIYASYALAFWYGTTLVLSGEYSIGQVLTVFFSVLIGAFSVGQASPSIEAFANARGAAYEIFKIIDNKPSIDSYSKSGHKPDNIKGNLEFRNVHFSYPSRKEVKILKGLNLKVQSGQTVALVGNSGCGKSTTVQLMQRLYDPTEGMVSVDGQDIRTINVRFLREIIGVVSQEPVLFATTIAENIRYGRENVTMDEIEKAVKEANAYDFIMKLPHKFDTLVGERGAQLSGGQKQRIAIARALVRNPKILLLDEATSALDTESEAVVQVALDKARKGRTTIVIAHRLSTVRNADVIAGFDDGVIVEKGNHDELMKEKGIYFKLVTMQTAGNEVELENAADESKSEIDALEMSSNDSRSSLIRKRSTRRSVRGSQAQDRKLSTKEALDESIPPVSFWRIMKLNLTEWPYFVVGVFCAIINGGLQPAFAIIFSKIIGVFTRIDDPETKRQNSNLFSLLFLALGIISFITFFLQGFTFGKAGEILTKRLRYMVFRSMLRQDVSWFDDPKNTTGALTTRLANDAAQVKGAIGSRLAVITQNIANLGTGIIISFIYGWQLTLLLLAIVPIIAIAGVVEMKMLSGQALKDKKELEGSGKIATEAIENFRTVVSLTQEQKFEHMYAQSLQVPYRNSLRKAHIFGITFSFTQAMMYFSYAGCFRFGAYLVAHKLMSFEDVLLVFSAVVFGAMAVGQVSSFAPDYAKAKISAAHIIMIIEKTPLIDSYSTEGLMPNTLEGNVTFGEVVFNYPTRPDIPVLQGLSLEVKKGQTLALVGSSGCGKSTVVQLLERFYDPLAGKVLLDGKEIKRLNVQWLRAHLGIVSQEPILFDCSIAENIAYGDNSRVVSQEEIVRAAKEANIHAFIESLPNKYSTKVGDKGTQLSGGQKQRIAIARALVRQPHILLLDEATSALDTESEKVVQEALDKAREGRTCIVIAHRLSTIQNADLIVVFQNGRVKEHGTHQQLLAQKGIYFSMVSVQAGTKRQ

[3] = target: Multidrug resistance protein 1a (Rattus norvegicus) (UniProt Q6PSM0); experiment: TP_TRANSPORTER: Immunohistochemisty in vivo, adrenals of Fischer 344 rat; format: functional, organism-based; settings: Adrenal tissue
[4] = target: Multidrug resistance protein 1a (Rattus norvegicus) (UniProt Q6PSM0); experiment: TP_TRANSPORTER: Immunohistochemisty in vivo, liver of Fischer 344 rat; format: functional, organism-based
[5] = target: Multidrug resistance protein 1a (Rattus norvegicus) (UniProt Q6PSM0); experiment: TP_TRANSPORTER: Immunohistochemisty in vivo, kidney of Fischer 344 rat; format: functional, organism-based
[6] = target: Multidrug resistance protein 1a (Rattus norvegicus) (UniProt Q6PSM0); experiment: TP_TRANSPORTER: Immunohistochemisty in vivo, stomach of Fischer 344 rat; format: functional, organism-based

Multidrug resistance protein 1a (Rattus norvegicus), sequence (Q6PSM0 as listed by the source): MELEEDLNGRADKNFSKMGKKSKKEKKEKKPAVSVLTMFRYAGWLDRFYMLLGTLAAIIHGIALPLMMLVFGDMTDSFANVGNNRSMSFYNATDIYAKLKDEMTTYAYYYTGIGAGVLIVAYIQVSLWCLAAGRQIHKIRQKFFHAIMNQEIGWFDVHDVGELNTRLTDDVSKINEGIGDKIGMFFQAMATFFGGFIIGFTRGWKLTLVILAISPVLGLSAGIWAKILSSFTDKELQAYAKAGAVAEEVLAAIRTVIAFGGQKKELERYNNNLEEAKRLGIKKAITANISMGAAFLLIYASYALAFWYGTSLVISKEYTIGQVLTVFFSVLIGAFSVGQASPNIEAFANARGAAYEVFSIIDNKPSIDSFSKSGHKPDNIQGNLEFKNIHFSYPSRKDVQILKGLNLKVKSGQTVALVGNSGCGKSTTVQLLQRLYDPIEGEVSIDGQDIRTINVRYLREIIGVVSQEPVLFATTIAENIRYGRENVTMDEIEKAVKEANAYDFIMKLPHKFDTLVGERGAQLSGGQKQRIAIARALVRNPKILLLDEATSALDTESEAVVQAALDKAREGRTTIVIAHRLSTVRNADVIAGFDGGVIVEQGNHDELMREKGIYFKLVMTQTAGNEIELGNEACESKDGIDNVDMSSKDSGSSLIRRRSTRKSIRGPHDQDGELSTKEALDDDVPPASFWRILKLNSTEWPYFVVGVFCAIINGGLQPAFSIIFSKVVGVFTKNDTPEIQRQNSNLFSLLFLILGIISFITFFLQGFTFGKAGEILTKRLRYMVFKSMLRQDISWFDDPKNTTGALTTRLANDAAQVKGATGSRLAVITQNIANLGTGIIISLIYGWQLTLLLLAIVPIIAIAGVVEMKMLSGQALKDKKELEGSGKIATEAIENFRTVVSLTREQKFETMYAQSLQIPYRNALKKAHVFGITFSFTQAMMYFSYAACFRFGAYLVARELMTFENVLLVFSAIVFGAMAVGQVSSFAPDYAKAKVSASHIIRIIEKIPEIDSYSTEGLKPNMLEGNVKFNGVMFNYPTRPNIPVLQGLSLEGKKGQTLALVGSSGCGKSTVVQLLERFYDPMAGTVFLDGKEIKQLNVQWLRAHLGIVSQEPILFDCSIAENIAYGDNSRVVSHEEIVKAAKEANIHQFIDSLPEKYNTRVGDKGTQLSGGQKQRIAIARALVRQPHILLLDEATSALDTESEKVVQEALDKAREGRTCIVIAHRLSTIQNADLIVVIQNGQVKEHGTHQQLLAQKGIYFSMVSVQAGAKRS

SMILES: CCOP(=S)(OCC)Oc1nc(Cl)c(Cl)cc1Cl [CHLORPYRIFOS]
- Activity [1]: inducer [+]
- Activity [2]: substrate [+]; also recorded: is not a substrate [-]
- Activity [3]: inducer [+]
- Activity [4]: inducer [+]
- Activity [5]: inducer [+]
- Activity [6]: inducer [+]
